Results reported in patent publication US20230285431A1, “Human Milk Oligosaccharide for Improving Health of Intestinal Microenvironment and Use Thereof” (Inner Mongolia Yili Industrial Group Co., Ltd., priority 2020, published 2023).
Entries after “also recorded” stand apart in the source; their conditions may differ.

Legend:
Type in all cases: cell-based
[1] = system: infant fecal flora of the simulated distal colon; assay: Small batch fermentation with each HMO in simulated distal colon environment; conditions: for pH changes of the distal colon over time: starting pH 6.5, FIG. 3B; for production of isobutyric acid, distal colon / production of isovaleric acid, distal colon: small batch fermentation; for production of isobutyric acid, distal colon: FIG. 6A; for production of isovaleric acid, distal colon: FIG. 6B; for formic acid produced, distal colon / propionic acid produced, distal colon / acetic acid produced, distal colon / butyric acid produced, distal colon: 48 hours of fermentation; for formic acid produced, distal colon: FIG. 13; for propionic acid produced, distal colon: FIG. 15; for total short chain fatty acids produced, distal colon: FIG. 12; for acetic acid produced, distal colon: FIG. 14; for butyric acid produced, distal colon: FIG. 16
Text: (§1) Using a SHIME device (see the schematic diagram in FIG. 1A), fresh fecal samples containing bacteria flora were obtained from a healthy infant naturally delivered and exclusively breastfed, and inoculated into containers corresponding to the proximal colon and distal colon. Food material was fed to the stomach/small intestine end of the device three times a day for two weeks to support the growth and colonization of the flora in the proximal colon and distal colon. Here, the food material that was digested by the small intestine and entered the colon was prepared on the basis of the standard food material provided by ProDigest, the manufacturer of the SHIME device, with adjustment to the ratio of lactose, casein and whey protein; the standard food material was composed of: pectin (1 g/L), glucose (1 g/L), starch (1 g/L), cellobiose (1 g/L), proteose peptone (2 g/L), mucin (6 g/L)), lactose (2.1 g/L), casein (0.2 g/L), whey-lactalbumin (2.7 g/L), L-cysteine hydrochloride (0.2 g/L). The ratio of lactose, casein and whey protein in the food materials in each experiment of the present disclosure was adjusted to about 12:1:15, with reference to Le Blay et al. (2010), and stable and balanced nutrients were maintained, so as to simulate the food composition to which the infant's intestinal microecology may be exposed during regular breastfeeding or infant formula feeding. After the infant fecal flora was stabilized in the SHIME model for two weeks, the proximal colon and distal colon were sampled, aliquoted in glycerol to form a stock solution, and stored under anaerobic conditions at −80° C.
After the infant flora was inoculated into the SHIME model and stably grown for 2 weeks (as described in the aforementioned “Fecal inoculation and culture in SHIME device”), 10 mL of the flora in the proximal colon and distal colon was taken and respectively transferred to fermentation flasks under anaerobic conditions for small batch fermentation. On the basis of 43 mL basal buffer (for adjusting pH and simulating the corresponding colonic environment), each fermentation flask also contained 20 mL PBS buffer (for dissolving and introducing the HMO test substance) supplemented with different amounts of HMOs, so that the final concentration of each HMO was 0.02 g/L, 0.2 g/L, or 2 g/L, the pH of the proximal colon was set to 5.6, and the pH of the distal colon was set to 6.5. The flasks were incubated at 37° C. with shaking. During incubation, the pressure was measured at 0, 6 hours, 24 hours and 48 hours, followed by sampling for detection of pH and short chain fatty acids. Measurements were repeated three times.
During the HMO intervention, the gas production in each group was compared by measuring changes in pressure. Short chain fatty acid analysis including isobutyric acid, isovaleric acid, butyric acid, propionic acid, acetic acid, and formic acid, were analyzed by HPLC.
(§2) A two-tailed, paired t-test was performed on the data results. When there is a significant difference between two groups, and p<0.05, it is indicated with an asterisk *. Two asterisks ** indicate p<0.01. Three asterisks *** indicate p<0.001.

[2] = system: infant fecal flora of the simulated distal colon (SHIME model); assay: SHIME fermentation with each HMO in simulated distal colon environment; conditions: for decrease ratio of butyric acid, Day 14 versus Day 1, compared to control without HMO: 14 days of fermentation; for Butyric acid, Log2 (day 14/day 1): HMO 2 g/L in feed, 14 days of HMO intervention, biological replicate 1
Text: as §1
The infant fecal flora sampled and stored as in “Fecal inoculation and culture in SHIME device” was inoculated into the SLIME model to investigate the fermentation of HMOs in the SHIME device. Two batches of experiments were done sequentially, and three sample groups (or control) were simultaneously done in each batch of experiments. In three sets of experimental devices, the devices simulating the proximal colon and distal colon were inoculated separately (see the schematic diagram of FIG. 1B). Food material was fed three times a day, and after 4 days of incubation, an HMO was blended into the feed food material (no HMO was added to the control group). 280 mg of HMO (at a concentration of 2 g/L) and 60 mL of pancreatic juice were added into 140 mL of a stock solution for each food material. Only one experiment was performed for each set of HMO and control, so the biological replicate was 1. SHIME fermentation continued until Day 14 after the HMO intervention, and samples were taken for detection at different time periods during the fermentation period.
as §2

[3] = system: infant fecal flora of the simulated proximal colon; assay: Small batch fermentation with each HMO in simulated proximal colon environment; conditions: for formic acid produced, proximal colon: FIG. 8; for acetic acid produced, proximal colon: FIG. 9; for total short chain fatty acids produced, proximal colon: FIG. 7; for pressure changes (gas production) in the proximal colon: FIG. 4A
Text: Using a SHIME device (see the schematic diagram in FIG. 1A), fresh fecal samples containing bacteria flora were obtained from a healthy infant naturally delivered and exclusively breastfed, and inoculated into containers corresponding to the proximal colon and distal colon. Food material was fed to the stomach/small intestine end of the device three times a day for two weeks to support the growth and colonization of the flora in the proximal colon and distal colon. Here, the food material that was digested by the small intestine and entered the colon was prepared on the basis of the standard food material provided by ProDigest, the manufacturer of the SHIME device, with adjustment to the ratio of lactose, casein and whey protein; the standard food material was composed of: pectin (1 g/L), glucose (1 g/L), starch (1 g/L), cellobiose (1 g/L), proteose peptone (2 g/L), mucin (6 g/L)), lactose (2.1 g/L), casein (0.2 g/L), whey-lactalbumin (2.7 g/L), L-cysteine hydrochloride (0.2 g/L). The ratio of lactose, casein and whey protein in the food materials in each experiment of the present disclosure was adjusted to about 12:1:15, with reference to Le Blay et al. (2010), and stable and balanced nutrients were maintained, so as to simulate the food composition to which the infant's intestinal microecology may be exposed during regular breastfeeding or infant formula feeding. After the infant fecal flora was stabilized in the SHIME model for two weeks, the proximal colon and distal colon were sampled, aliquoted in glycerol to form a stock solution, and stored under anaerobic conditions at −80° C. After the infant flora was inoculated into the SHIME model and stably grown for 2 weeks (as described in the aforementioned “Fecal inoculation and culture in SHIME device”), 10 mL of the flora in the proximal colon and distal colon was taken and respectively transferred to fermentation flasks under anaerobic conditions for small batch fermentation. On the basis of 43 mL basal buffer (for adjusting pH and simulating the corresponding colonic environment), each fermentation flask also contained 20 mL PBS buffer (for dissolving and introducing the HMO test substance) supplemented with different amounts of HMOs, so that the final concentration of each HMO was 0.02 g/L, 0.2 g/L, or 2 g/L, the pH of the proximal colon was set to 5.6, and the pH of the distal colon was set to 6.5. The flasks were incubated at 37° C. with shaking. During incubation, the pressure was measured at 0, 6 hours, 24 hours and 48 hours, followed by sampling for detection of pH and short chain fatty acids. Measurements were repeated three times. During the HMO intervention, the gas production in each group was compared by measuring changes in pressure. Short chain fatty acid analysis including isobutyric acid, isovaleric acid, butyric acid, propionic acid, acetic acid, and formic acid, were analyzed by HPLC. A two-tailed, paired t-test was performed on the data results. When there is a significant difference between two groups, and p<0.05, it is indicated with an asterisk *. Two asterisks ** indicate p<0.01. Three asterisks *** indicate p<0.001.

[4] = HMO 2 g/L, 48 hours of fermentation

Row | Compound | pH changes of the distal colon over time ([1]; HMO 2 g/L) | production of isobutyric acid, distal colon [1] | production of isovaleric acid, distal colon [1] | decrease ratio of butyric acid, Day 14 versus Day 1, compared to control without HMO [2] | Butyric acid, Log2 (day 14/day 1) [2] | formic acid produced, distal colon [1] | propionic acid produced, distal colon [1] | total short chain fatty acids produced, distal colon ([1]; HMO 2 g/L, 24 hours) | formic acid produced, proximal colon ([3]; 48 hours of fermentation) | acetic acid produced, proximal colon ([3]; 48 hours of fermentation) | total short chain fatty acids produced, proximal colon ([3]; HMO 2 g/L, 24 hours of fermentation) | total short chain fatty acids produced, proximal colon [3, 4] | pressure changes (gas production) in the proximal colon ([3]; HMO 2 g/L) | acetic acid produced, distal colon [1] | butyric acid produced, distal colon [1] | total short chain fatty acids produced, distal colon ([1]; HMO 0.02 g/L, 6 hours) | propionic acid produced, proximal colon ([3]; 48 hours of fermentation, FIG. 10) | butyric acid produced, proximal colon ([3]; 48 hours of fermentation, FIG. 11) | pressure changes (gas production) in the proximal colon ([3]; HMO 0.2 g/L) | pH changes over time ([1]; HMO 0.2 g/L, colon section not given)
1 | 2′-fucosyllactose [2′-FL] | tend to significantly lower the pH | significantly reduce | most potent; also recorded: significantly reduce | good improving effect compared to the control | −0.67 | – | – | – | – | – | – | – | – | – | – | – | – | – | – | –
2 | 3-fucosyllactose [3-FL] | tend to significantly lower the pH | significantly reduce | significantly reduce | – | −0.33 | more significant | more significant | relatively more short chain fatty acids | – | – | – | – | – | – | – | – | – | – | – | –
3 | CC(=O)N[C@H]1[C@H]([C@H](O)[C@H](O)CO)O[C@@](O[C@H]2[C@@H](O)[C@@H](CO)O[C@@H](O[C@H]3[C@H](O)[C@@H](O)C(O)O[C@@H]3CO)[C@@H]2O)(C(=O)O)C[C@@H]1O (stereo partly drawn) [3-SL, 3′-sialyl lactose] | – | significantly reduce | – | the smallest | −0.13 | more significant | more significant | – | significantly increased | significantly increased; also recorded: more significant | produces more SCFA | significantly more SCFA | higher pressure | more significant | significantly increased | relatively more short chain fatty acids | – | – | – | –
4 | CC(=O)N[C@H]1[C@H]([C@H](O)[C@H](O)CO)O[C@@](OC[C@H]2O[C@@H](O[C@H]3[C@H](O)[C@@H](O)[C@H](O)O[C@@H]3CO)[C@H](O)[C@@H](O)[C@H]2O)(C(=O)O)C[C@@H]1O [6-SL, 6′-sialyl lactose] | – | – | – | good improving effect compared to the control | −0.66 | more significant | – | relatively more short chain fatty acids | significantly increased; also recorded: more significant | significantly increased | – | significantly more SCFA | higher pressure | more significant | significantly increased | – | significantly increased | significantly increase | – | –
5 | CC(=O)N[C@H]1[C@H](O[C@H]2[C@@H](O)[C@@H](CO)O[C@@H](O[C@H]3[C@H](O)[C@@H](O)C(O)O[C@@H]3CO)[C@@H]2O)O[C@H](CO)[C@@H](O)[C@@H]1O[C@@H]1O[C@H](CO)[C@H](O)[C@H](O)[C@H]1O (stereo partly drawn) [LNT, Lacto-N-tetraose] | – | significantly reduce | – | good improving effect compared to the control | −0.70 | more significant | – | – | – | – | – | – | – | more significant | – | relatively more short chain fatty acids | – | – | tends to produce gas better | tends to better lower the pH
